In ChEMBL document CHEMBL4219258, “Determination of absolute configuration and binding efficacy of benzimidazole-based FabI inhibitors through the support of electronic circular dichroism and MM-GBSA techniques” (Bioorg Med Chem Lett, 2018):

assay: Inhibition of Francisella tularensis FabI

With `C[C@@H](c1ccc(Cl)c(Cl)c1)n1cnc2cc3c(cc21)CCCC3` as the molecule, how does the IC50 read?
The IC50 was 14 nM.

Which IC50 does the source give for `C[C@H](c1ccc(Cl)c(Cl)c1)n1cnc2cc3c(cc21)CCCC3` here?
Its IC50 is 7800 nM.

For `C[C@H](c1ccc(Cl)c(Cl)c1)n1cnc2cc3c(cc21)CCC3`, which IC50 is on record?
The IC50 was 1840 nM.

Which IC50 does the source give for `C[C@@H](c1ccc(Cl)c(Cl)c1)n1cnc2cc3c(cc21)CCC3` here?
The IC50 was 16 nM.
